Earlier results on two compounds are cited in patent US20210059976A1, “ORAL PHARMACEUTICAL FORMULATION COMPRISING CANNABINOIDS AND POLOXAMER” (GW Research Limited, priority 2018, published 2021).

Read-outs that look alike come from different tables or passages of the source.

The conditions of data set [1]: 20 mg oral administration, man.
For data set [2], the system named is acute experimental models of generalized seizure.

As for `CCCCCc1cc(O)c2c(c1)OC(C)(C)[C@@H]1CCC(C)=C[C@@H]21` [THC, tetrahydrocannabinol], in data set [1], the somnolence entry is “induces somnolence”. For the same compound, the “efficacy in acute experimental models of generalized seizure” value in data set [2] (between 1.25 and 10 mg/kg) was “efficacious”.
Consider `C=C(C)[C@@H]1CCC(C)=C[C@H]1c1c(O)cc(CCCCC)cc1O` [CBD, cannabidiol], for which the Oral bioavailability entry is “low and unpredictable”. Moreover, the “efficacy in acute experimental models of generalized seizure” value in data set [2] (100 mg/kg, but not 1 or 10 mg/kg) is “efficacious”.
